Source: patent US8658800B2 (priority 2010, dated 2014)

Columns and labels:
Lucilia cuprina larvae = test: Lucilia cuprina test (LUCICU); assay type: in vivo; conditions: 100 ppm, treated horse meat, after 2 days
Experimental: Lucilia cuprina Test (LUCICU)
(§1) Solvent: dimethyl sulphoxide
(§2) To produce a suitable preparation of active compound, 10 mg of active compound are mixed with 0.5 ml of dimethyl sulphoxide and the concentrate is diluted with water to the desired concentration.
Vessels containing horse meat treated with the active compound of the desired concentration are populated with about 20 Lucilia cuprina larvae.
After 2 days, the kill in % is determined 100% means that all of the larvae have been killed; 0% means that none of the larvae have been killed.

adult Musca domestica = test: Musca domestica test (MUSCDO); assay type: in vivo; conditions: treated sponge, after 2 days
Experimental: Musca domestica Test (MUSCDO)
as §1, §2
Vessels containing a sponge treated with the active compound preparation of the desired concentration are populated with adult Musca domestica.
After 2 days, the kill in % is determined 100% means that all of the flies have been killed; 0% means that none of the flies have been killed.

[1] = logP by HPLC on reversed-phase columns (C 18), EEC Directive 79/831 Annex V.A8; assay type: physicochemical; conditions: reversed-phase C18 HPLC column; HPLC, reversed-phase C 18, acidic range pH 2.7, 0.1% aqueous formic acid/acetonitrile; read-out: log P
Experimental: The logP values reported in the table above and in the Preparation Examples were determined in accordance with EEC Directive 79/831 Annex V.A8 by HPLC (High Performance Liquid Chromatography) on reversed-phase columns (C 18), with the following methods:
The LC-MS determination in the acidic range is carried out at pH 2.7 using the mobile phases 0.1% aqueous formic acid and acetonitrile (contains 0.1% formic acid), linear gradient from 10% acetonitrile to 95% acetonitrile
Calibration was carried out using unbranched alkan-2-ones (having from 3 to 16 carbon atoms) with known logP values (the logP values were determined by the retention times using linear interpolation between two successive alkanones).

[2] = system: larvae of the mustard beetle (Phaedon cochleariae); test: Phaedon test (PHAECO spray treatment); assay type: in vivo; conditions: 168 h, 100 g/ha, sprayed Chinese cabbage discs, after 7 days, read-out: activity (kill of beetle larvae)
Experimental: Phaedon Test ([…] Spray Treatment) Solvents: 78.0 parts by weight of acetone • • 1.5 parts by weight of dimethylformamide Emulsifier: 0.5 part by weight of alkylaryl polyglycol ether To produce a suitable preparation of active compound, 1 part by weight of active compound is mixed with the stated amount of solvents and emulsifier, and the concentrate is diluted with emulsifier-containing water to the desired concentration. Discs of Chinese cabbage (Brassica pekinensis) are sprayed with an active compound preparation of the desired concentration and, after drying, populated with larvae of the mustard beetle (Phaedon cochleariae).

Boophilus microplus = Boophilus microplus test (BOOPMI injection); assay type: in vivo; conditions: 10 μg/animal, injection into the abdomen, after 7 days
Experimental: Boophilus microplus Test (BOOPMI Injection)
as §1
To produce a suitable preparation of active compound, 10 mg of active compound are mixed with 0.5 ml of solvent and the concentrate is diluted with solvent to the desired concentration.
The active compound solution is injected into the abdomen (Boophilus microplus), and the animals are transferred into dishes and stored in a climate-controlled room. The activity is assessed by […] of fertile eggs.
After 7 days, the effect in % is determined 100% means that none of the ticks has laid any fertile eggs.

[3] = system: caterpillars of the armyworm (Spodoptera frugiperda); test: Spodoptera frugiperda test (SPODFR spray treatment); assay type: in vivo; conditions: foliar, 168 h, 100 g/ha, sprayed maize leaf discs, after 7 days, read-out: activity (kill of caterpillars)
Experimental: Spodoptera frugiperda Test (SPODFR Spray Treatment)
Solvents: 78.0 parts by weight of acetone
(§3) • 1.5 parts by weight of dimethylformamide Emulsifier: 0.5 part by weight of alkylaryl polyglycol ether
(§4) To produce a suitable preparation of active compound, 1 part by weight of active compound is mixed with the stated amount of solvents and emulsifier, and the concentrate is diluted with emulsifier-containing water to the desired concentration.
Discs of maize leaves (Zea mays) are sprayed with an active compound preparation of the desired concentration and, after drying, populated with caterpillars of the armyworm (Spodoptera frugiperda).
After 7 days, the effect in % is determined. 100% means that all caterpillars have been killed; 0% means that none of the caterpillars have been killed.

[4] = system: green peach aphid (Myzus persicae); test: Myzus test (MYZUPE spray treatment); assay type: in vivo; conditions: 144 h, sprayed Chinese cabbage discs, after 6 days, read-out: activity (kill of aphids)
Experimental: Myzus Test (MYZUPE Spray Treatment)
Solvents: 78 parts by weight of acetone
as §3, §4
Discs of Chinese cabbage (Brassica pekinensis) infested by all stages of the green peach aphid (Myzus persicae) are sprayed with an active compound preparation of the desired concentration.
After 6 days, the effect in % is determined. 100% means that all of the aphids have been killed; 0% means that none of the aphids have been killed.

chromatographic logP [1] | SMILES | efficacy (kill) (Lucilia cuprina larvae) | efficacy (kill) (adult Musca domestica; 100 ppm) | pest or weed control at 100 g/ha [2] | activity (100% = none of the ticks has laid any fertile eggs) (Boophilus microplus) | pest or weed control at 100 g/ha [3] | pest or weed control at 100 g/ha [4] | efficacy (kill) (adult Musca domestica; 20 ppm)
4.33 | Cc1cc(Cl)cc(C(=S)NC(C)(C)C)c1NC(=O)c1cc(Cn2nnc(C(F)(F)F)n2)nn1-c1ncccc1Cl [Compound 6] | 100% | 90% | 100% | 100% | 100% | – | –
3.42 | CNC(=S)c1cc(Cl)cc(C)c1NC(=O)c1cc(Cn2nnc(C(F)(F)F)n2)nn1-c1ncccc1Cl [Compound 7] | 100% | – | 100% | 100% | 100% | 100% | 90%
